Source: paper PMC10824666 (Nature Cancer, 2023)
Where two headings read alike, the source gives them in different places. Values belong to the compound of their own block, whether it stands above or below them.

Assays:
[1] = biological target: T1, MEK5 (Homo sapiens, UniProt Q13163); test: biochemical; design: Eurofins DiscoverX kinase panel, competitive binding assay at 1 uM, percent of DMSO control; details: competitive binding, percent of DMSO control
T1 construct: gene MAP2K5
T1 sequence (Q13163 1-448): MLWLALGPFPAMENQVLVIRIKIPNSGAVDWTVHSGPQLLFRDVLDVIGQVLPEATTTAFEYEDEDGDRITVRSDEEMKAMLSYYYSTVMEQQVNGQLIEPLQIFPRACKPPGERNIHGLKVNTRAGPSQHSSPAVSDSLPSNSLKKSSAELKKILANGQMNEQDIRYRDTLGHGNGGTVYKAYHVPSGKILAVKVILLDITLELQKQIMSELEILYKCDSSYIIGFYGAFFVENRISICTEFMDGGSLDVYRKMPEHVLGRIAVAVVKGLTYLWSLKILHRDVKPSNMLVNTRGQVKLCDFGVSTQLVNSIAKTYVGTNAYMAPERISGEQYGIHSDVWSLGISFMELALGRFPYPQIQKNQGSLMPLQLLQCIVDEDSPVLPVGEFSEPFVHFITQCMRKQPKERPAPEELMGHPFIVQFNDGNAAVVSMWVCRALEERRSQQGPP
How it was run: (§1)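 Competitive binding assay across a 96-kinase panel with KIF18A compounds at 1 µM; values given as percentage of control (POC), single experiment.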

[2] = biological target: GSK3B (Homo sapiens, UniProt P49841); test: biochemical; design: Eurofins DiscoverX kinase panel, competitive binding assay at 1 uM, percent of DMSO control; details: competitive binding, percent of DMSO control
How it was run: as §1

[3] = read-out: Kinome Profiling performed by Eurofins DiscoverX / AM-0277, 1.0 µM / POC
[4] = read-out: Kinome Profiling performed by Eurofins DiscoverX / AM-1882, 1.0 µM / POC
[5] = read-out: Kinome Profiling performed by Eurofins DiscoverX / AM-5308, 1.0 µM / POC

GSK3B, sequence (P49841 whole entry): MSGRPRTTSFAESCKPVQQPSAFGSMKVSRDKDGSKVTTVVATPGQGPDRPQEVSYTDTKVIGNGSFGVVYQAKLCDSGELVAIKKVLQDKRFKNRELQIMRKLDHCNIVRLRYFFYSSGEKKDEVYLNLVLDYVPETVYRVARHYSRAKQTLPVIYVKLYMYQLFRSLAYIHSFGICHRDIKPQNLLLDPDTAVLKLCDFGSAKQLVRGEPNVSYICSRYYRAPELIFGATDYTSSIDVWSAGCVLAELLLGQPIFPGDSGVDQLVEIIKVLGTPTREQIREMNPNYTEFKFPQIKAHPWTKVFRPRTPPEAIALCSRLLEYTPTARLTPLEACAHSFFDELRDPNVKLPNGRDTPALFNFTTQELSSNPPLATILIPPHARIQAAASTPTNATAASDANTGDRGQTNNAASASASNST

remaining activity at 1 µM [1, 3]: 86%
remaining activity at 1 µM [2, 3]: 100%
SMILES: CC(C)(CO)Nc1ccc(C(=O)Nc2cccc(S(=O)(=O)C3CCCC3)c2)c(N2CCC3(CC2)CC3)n1 [AM-0277]

remaining activity at 1 µM [1, 4]: 38.5%
remaining activity at 1 µM [2, 4]: 100%
SMILES: CC(C)(C)NS(=O)(=O)c1cccc(NC(=O)c2ccc(S(=O)(=O)NC(C)(C)C)cc2N2CCC3(CC2)CC3)c1 [AM-1882]

remaining activity at 1 µM [1, 5]: 99.5%
remaining activity at 1 µM [2, 5]: 100%
SMILES: C[C@@H]1CN(c2cccc(NC(=O)c3ccc(NS(=O)(=O)CCO)cc3N3CCC4(CC3)CC4)n2)CCO1 [AM-5308]
